{"source": "paper PMC11919836", "about": "“Multi-omics analysis reveals Jianpi formula-derived bioactive peptide-YG-22 potentially inhibited colorectal cancer via regulating epigenetic reprogram and signal pathway regulation” (Frontiers in Genetics, 2025)", "key": {"HCT116 cells [1]": {"test_system": "HCT116 cells", "test": "CCK-8 cell viability assay of candidate peptides", "format": "cell-based", "details": "peptide 5 mg/mL, 24 h, CCK-8, absorbance 450 nm, mean ± SEM n = 3, P < 0.01 vs control", "description": "(§1) After comparing the differential expressed peptides between two treatment groups: chemotherapy alone (n = 5) and chemotherapy combined with Jianpi formula (n = 5). Six candidate peptides were finally screened out, including YP-16 (YGRKKRRQRRR-GPSVP), YP-17 (YGRKKRRQRRR-OLTSGP), YG-22 (YGRKKRRQRRR-DGSPGKDGVRG), YM-22 (YGRKKRRQRRR-LGEAFDGARDM), YP-23 (YGRKKRRQRRR-MEPLGRQLTSGP), and YD-28 (YGRKKRRQRRR-EDPQGDAAOKTDTSHHD). And then, the candidate peptides were synthesized based on their amino acid sequences to evaluate their effects on HCT116 cell viability. Briefly, a total of 1,500 cells per well were seeded in 96-well plates and incubated overnight in a culture medium under appropriate conditions. Following incubation, the cells were treated with indicated peptides (5 mg/mL) at the desired concentrations for 24 h. Cell viability was then assessed using the CCK-8 assay (Dojindo, Japan), following the manufacturer’s instructions. After adding the CCK-8 reagent and incubating for the recommended time, absorbance was measured at 450 nm using a spectrophotometric plate reader (Bio-Tek, United States). Furthermore, HCT116 cells were treated with varying concentrations of YG-22 (0, 2, 4, 6, 8, and 10 mg/mL) for either 24 or 48 h to determine the IC50 values. After the incubation with YG-22 (IC50 concentration) for 48 h, the HCT116 cells were collected for subsequent analyses, including RNA sequencing (RNA-seq) to evaluate gene expression profiles, liquid chromatography-mass spectrometry (LC-MS) for metabolite analysis, assay for transposase-accessible chromatin using sequencing (ATAC-seq) to assess chromatin accessibility, and chromatin immunoprecipitation sequencing (ChIP-seq) to study the H3K4Me3 profiling and NF-κB protein-DNA interactions.\nThere were at least three biological replicates, excluding ATAC-seq and ChIP-seq analysis, for each group. Cell viability evaluation data were reported as means ± SEM. Student’s t-test (two-tailed) or one-way ANOVA with Bonferroni’s multiple comparison test were used. P-values of <0.05, or 0.01, or 0.001 were deemed significant."}, "H3K4Me3 in HCT116 cells": {"test_system": "H3K4Me3 in HCT116 cells", "test": "ChIP-seq H3K4Me3 profiling of YG-22-treated cells", "format": "cell-based, human", "details": "48 h", "description": "as §1\nChIP-seq analysis for H3K4Me3 profiling and NF-κB protein-DNA interactions was conducted using a combination of chromatin immunoprecipitation and high-throughput sequencing. HCT116 cells (5 × 10^6) were fixed with 1% formaldehyde to crosslink proteins and DNA, followed by quenching with glycine and lysis to isolate chromatin. The chromatin was sonicated to fragment DNA, and immunoprecipitation was performed using specific antibodies for H3K4Me3 and NF-κB, coupled with Protein A + G magnetic beads. The immunoprecipitated complexes were reverse crosslinked, and DNA was purified. High-throughput sequencing libraries were prepared through end repair, A-tailing, adapter ligation, and PCR amplification, targeting fragment sizes of 100–300 bp. Sequencing was performed on the Illumina NovaSeq 6,000 platform.\nBioinformatics analysis included quality control using FastQC, adapter trimming with fastp, and alignment of clean reads to the human reference genome (hg38) using Bowtie2. Peak calling was conducted with MACS2 to identify binding sites and histone modifications, followed by annotation using ChIPseeker. Motif analysis, using MEME and HOMER, identified enriched motifs within peak regions, particularly for NF-κB binding. Functional enrichment analysis was carried out with KEGG pathways to link identified peaks to pathways. Visualization tools, such as heatmaps and Circos plots, were used to highlight binding site distribution and signal enrichment across the genome, providing insights into chromatin modifications and transcription factor interactions under experimental conditions."}, "HCT116 cells [2]": {"test_system": "HCT116 cells", "test": "Metabolomics analysis (LC-MS) of YG-22-treated cells", "format": "cell-based", "details": "HCT116, YG-22 1.769 mg/mL, 48 h", "description": "as §1\nFor metabolomics analysis, treated and control HCT116 cells (1 × 10^5) are collected, washed with cold PBS, and lysed using 80% methanol to extract metabolites. The lysates are centrifuged at 12,000–15,000 × g at 4°C, and the supernatants are stored at −80°C. Metabolite profiling is performed using liquid chromatography-mass spectrometry (LC-MS) with a reverse-phase LC column and gradient elution, followed by high-resolution mass spectrometry in positive and/or negative ion modes. Data preprocessing involves peak detection, alignment, normalization, and filtering using software such as XCMS or Compound Discoverer. Metabolites are identified by matching m/z values, retention times, and fragmentation patterns to databases like HMDB or METLIN, with MS/MS used for structural confirmation. […] The results are visualized with heatmaps, volcano plots, and pathway diagrams, providing insights into metabolic changes induced by treatment."}, "HCT116 cells [3]": {"test_system": "HCT116 cells", "test": "Chromatin accessibility analysis (ATAC-seq) of YG-22-treated cells", "format": "cell-based", "details": "HCT116, YG-22 1.769 mg/mL, 48 h", "description": "as §1, with “After the incubation with YG-22 (IC50 concentration) for 48 h, the HCT116 cells were collected for subsequent analyses, including RNA sequencing (RNA-seq) to evaluate gene expression profiles, liquid chromatography-mass spectrometry (LC-MS) for metabolite analysis, assay for transposase-accessible chromatin using sequencing (ATAC-seq) to assess chromatin accessibility, and chromatin immunoprecipitation sequencing (ChIP-seq) to study the H3K4Me3 profiling and NF-κB protein-DNA interactions.” left out"}, "NF-κB in HCT116 cells": {"test_system": "NF-κB in HCT116 cells", "test": "ChIP-seq of NF-κB binding in YG-22-treated cells", "format": "cell-based, human", "description": "as §1, with “interactions. […]” for “interactions.”\nBioinformatics analysis included quality control using FastQC, adapter trimming with fastp, and alignment of clean reads to the human reference genome (hg38) using Bowtie2. […]"}, "HCT116 cells [4]": {"test_system": "HCT116 cells", "test": "Transcriptome analysis (RNA-seq) of YG-22-treated cells", "format": "cell-based", "details": "HCT116, YG-22 1.769 mg/mL, 48 h, treated vs control", "description": "After comparing the differential expressed peptides between two treatment groups: chemotherapy alone (n = 5) and chemotherapy combined with Jianpi formula (n = 5). Six candidate peptides were finally screened out, including YP-16 (YGRKKRRQRRR-GPSVP), YP-17 (YGRKKRRQRRR-OLTSGP), YG-22 (YGRKKRRQRRR-DGSPGKDGVRG), YM-22 (YGRKKRRQRRR-LGEAFDGARDM), YP-23 (YGRKKRRQRRR-MEPLGRQLTSGP), and YD-28 (YGRKKRRQRRR-EDPQGDAAOKTDTSHHD). And then, the candidate peptides were synthesized based on their amino acid sequences to evaluate their effects on HCT116 cell viability. […] Cell viability was then assessed using the CCK-8 assay (Dojindo, Japan), following the manufacturer’s instructions. After adding the CCK-8 reagent and incubating for the recommended time, absorbance was measured at 450 nm using a spectrophotometric plate reader (Bio-Tek, United States). […]\nFor transcriptome analysis, treated and control HCT116 cells (1 × 10^5) are collected, and total RNA is extracted using RNA isolation kit (Qiagen, Germany) following the manufacturer’s instructions. Total RNA samples were prepared with an initial concentration of at least 20 ng/μL and a total quantity of at least 2 μg, ensuring an A260/A280 ratio between 1.9 and 2.1 for quality control. mRNA was isolated using oligo-dT beads to capture polyA-tailed transcripts, followed by thermal fragmentation into 200–300 bp fragments. […]"}, "[5]": {"details": "HCT116, YG-22 1.769 mg/mL, ChIP-seq"}}, "note": "Where no end group is shown, it is not given here.", "data": [{"substance": "YGRKKRRQRRR-EDPQGDAAOKTDTSHHD [YD-28]", "values": [{"measurement": "effect on HCT116 cell viability", "setting": "HCT116 cells [1]", "result": "notably reduced cell viability"}]}, {"substance": "YGRKKRRQRRR-LGEAFDGARDM (YGRKKRRQRRRLGEAFDGARDM) [YM-22]", "values": [{"measurement": "effect on HCT116 cell viability", "setting": "HCT116 cells [1]", "result": "notably reduced cell viability"}]}, {"substance": "YGRKKRRQRRR-OLTSGP [YP-17]", "values": [{"measurement": "effect on HCT116 cell viability", "setting": "HCT116 cells [1]", "result": "notably reduced cell viability"}]}, {"substance": "YGRKKRRQRRRDGSPGKDGVRG [YG-22]", "values": [{"measurement": "effect on HCT116 cell viability", "setting": "HCT116 cells [1]", "result": "notably reduced cell viability"}, {"measurement": "downregulated differential H3K4me3 peaks", "setting": "H3K4Me3 in HCT116 cells; [5]", "result": 385}, {"measurement": "upregulated differential H3K4me3 peaks", "setting": "H3K4Me3 in HCT116 cells; [5]", "result": 97}, {"measurement": "intronic H3K4me3 peaks", "setting": "H3K4Me3 in HCT116 cells; HCT116, YG-22-treated, control 5.2%", "result": 4.5, "unit": "%"}, {"measurement": "intergenic H3K4me3 peaks", "setting": "H3K4Me3 in HCT116 cells; HCT116, YG-22-treated, control 7.1%", "result": 6.3, "unit": "%"}, {"measurement": "promoter-associated H3K4me3 peaks", "setting": "H3K4Me3 in HCT116 cells; HCT116, YG-22-treated, control 86.3%", "result": 87.8, "unit": "%"}, {"measurement": "downregulated metabolites, negative ion (NEG) mode", "setting": "HCT116 cells [2]", "result": 127}, {"measurement": "downregulated metabolites, positive ion (POS) mode", "setting": "HCT116 cells [2]", "result": 70}, {"measurement": "upregulated metabolites, negative ion (NEG) mode", "setting": "HCT116 cells [2]", "result": 121}, {"measurement": "upregulated metabolites, positive ion (POS) mode", "setting": "HCT116 cells [2]", "result": 69}, {"measurement": "downregulated differential chromatin accessibility peaks", "setting": "HCT116 cells [3]", "result": "1,697"}, {"measurement": "upregulated differential chromatin accessibility peaks", "setting": "HCT116 cells [3]", "result": 78}, {"measurement": "downregulated NF-κB peaks", "setting": "NF-κB in HCT116 cells; HCT116, YG-22, 48 h, ChIP-seq", "result": 36}, {"measurement": "upregulated NF-κB peaks", "setting": "NF-κB in HCT116 cells; HCT116, YG-22, 48 h, ChIP-seq", "result": 26}, {"measurement": "NF-κB peaks in distal intergenic regions", "setting": "NF-κB in HCT116 cells; HCT116, YG-22-treated, 48 h, control 28.9%", "result": 38.4, "unit": "%"}, {"measurement": "downregulated genes (DEGs)", "setting": "HCT116 cells [4]", "result": 252}, {"measurement": "upregulated genes (DEGs)", "setting": "HCT116 cells [4]", "result": 236}]}]}
